From US10195156B2, “Compounds and compositions for intracellular delivery of agents” (ModernaTX, Inc., priority 2015, dated 2019) come the findings set out here.

A short description of data set [1]: Particle size and polydispersity index of nanoparticle compositions (Zetasizer Nano ZS). As to conditions: Table 1; for PDI: rows without footnote mark; for Size (nm): rows without footnote mark (lipid:DOPE:cholesterol:PEG-DMG 40:20:38.5:1.5, Luc mRNA; MC3 standard formulation). It counts as physicochemical. A digest of the protocol: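 In 1×PBS, the compositions were sized on a Zetasizer Nano ZS, which also reported their polydispersity index.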

Data set [2] can be described thus: Encapsulation efficiency of RNA (QUANT-IT RIBOGREEN RNA assay). It counts as physicochemical. As to conditions: Table 1; rows without footnote mark. A digest of the protocol:
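Nanoparticle samples diluted to ~5 μg/mL RNA in TE buffer (pH 7.5), incubated with or without 2% Triton X-100 solution at 37 °C for 15 min, then RiboGreen added. Fluorescence read at ~480/520 nm, blank-subtracted; free RNA % = intact over Triton-disrupted signal.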

Data set [3] can be described thus: pKa of nanoparticle compositions. In kind it is physicochemical. As to conditions: Table 1; rows without footnote mark.
In a further data set the test system is LDL-c. Put plainly: LDL levels in LDLr−/− mice after mRNA encoding the LDL receptor. In kind it is in vivo, LDLR knockout mice. As to conditions: Mus musculus; Table 7b; LDLr−/− mice, 0.5 mpk, LDLr; read-out: LDL levels lipid/untreated LDLr−/− mice 0.5 mpk, LDLr.

For the compound `CCCCCCCCCCCCN(CCCCCCCCCCCC)CC(=O)N1CCN(C(=O)CN(CCCCCCCCCCCC)CCN(CCCCCCCCC)CCCCCCCCC)CC1` [Compound 9, 2-(Didodecylamino)-1-(4-(N-(2-(dinonylamino)ethyl)-N-dodecylglycyl)piperazin-1-yl)ethan-1-one], in data set [1], the PDI came to 0.170 and the “Size (nm)” value came out at 78.0 nm. Moreover, the “EE (%)” value in data set [2] came out at 99.5%. Also, the pKa in data set [3] worked out at 6.76. The response vs control in vivo at 0.5 mg/kg in the data set on LDL-c turned out to be 87%.

Turning to `CCCCCCCCCCCCN(CCCCCCCCCCCC)CCN(CCCCCCCCC)CC(=O)N1CCN(C(=O)CN(CCCCCCCCCCCC)CCCCCCCCCCCC)CC1` [Compound 10, 2-(Didodecylamino)-1-(4-(N-(2-(didodecylamino)ethyl)-N-nonylglycyl)piperazin-1-yl)ethan-1-one], in data set [1], the PDI worked out at 0.130 and the “Size (nm)” value stood at 81.3 nm. In data set [2], the “EE (%)” value amounted to 99.2%. The same compound yielded a pKa in data set [3] of 6.58. Besides, in the data set on LDL-c, the response vs control in vivo at 0.5 mg/kg came out at 98%.
